Experiments:
[1] = system: bicistronic HCV replicon (replicon RNA, GenBank Accession No. AJ242654); assay: HCV Replicon Assay; type: cell-based; details: Hepatitis C virus, 72 h, read-out: Replicon IC50

Question: With `Cc1cc2c(cc1F)c(C#N)c(-c1ccc(S(=O)(=O)NC(C)(C)C(F)(F)F)cn1)n2C1CCCCC1` [compound 705, 6-(3-cyano-1-cyclohexyl-5-fluoro-6-methyl-1H-indol-2-yl)-N-(1,1,1-trifluoro-2-methylpropan-2-yl)pyridine-3-sulfonamide] as the molecule, how does the IC50 [1] read?
Answer: The IC50 was under 500 nM.

Question: What about the melting point of the same molecule?
Answer: Its melting point is 248 to 254 °C.

Question: With `CCc1cc2c(cc1F)c(C#N)c(-c1ccc(S(=O)(=O)N[C@@H](C)C(F)(F)F)cn1)n2-c1cc(Cl)ccn1` [compound 993, 6-[1-(4-chloropyridin-2-yl)-3-cyano-6-ethyl-5-fluoro-1H-indol-2-yl]-N-[(2S)-1,1,1-trifluoropropan-2-yl]pyridine-3-sulfonamide] as the molecule, how does the IC50 [1] read?
Answer: The IC50 was under 500 nM.

Question: What about the melting point of the same molecule?
Answer: Its melting point is 185 to 190 °C.

Question: Which IC50 [1] does the source give for `C[C@H](NS(=O)(=O)c1ccc(-c2c(C#N)c3cc(F)c(OC(F)F)cc3n2CCO)nc1)C(F)(F)F` [compound 940, 6-[3-cyano-6-(difluoromethoxy)-5-fluoro-1-(2-hydroxyethyl)-1H-indol-2-yl]-N-[(2S)-1,1,1-trifluoropropan-2-yl]pyridine-3-sulfonamide] here?
Answer: The IC50 was 500 to 2000 nM.

Question: And the melting point?
Answer: Its melting point is 203 to 208 °C.

Question: For `COc1ccnc(-n2c(-c3ccc(S(=O)(=O)N[C@@H](C)C(F)(F)F)cn3)c(C(N)=O)c3cc(F)c(C)cc32)n1` [compound 906, 5-fluoro-1-(4-methoxypyrimidin-2-yl)-6-methyl-2-(5-{[(2S)-1,1,1-trifluoropropan-2-yl]sulfamoyl}pyridin-2-yl)-1H-indole-3-carboxamide], which IC50 [1] is on record?
Answer: The IC50 was under 500 nM.

Question: And the melting point?
Answer: Its melting point is 167 to 174 °C.

Question: What does the source list for `CC(C)NS(=O)(=O)c1cnc(-c2c(C(N)=O)c3ccc(OC(F)F)cc3n2C2CCCCC2)nc1` [compound 747, 1-cyclohexyl-6-(difluoromethoxy)-2-[5-(propan-2-ylsulfamoyl)pyrimidin-2-yl]-1H-indole-3-carboxamide]?
Answer: IC50 [1]: < 500 nM; melting point: 216 to 218 °C

Question: Which IC50 [1] does the source give for `COc1ccc2c(c1)c(C#N)c(-c1ncc(S(=O)(=O)N[C@@H](C)C3CC3)cn1)n2C1CCC1` [compound 570, 2-(3-cyano-1-cyclobutyl-5-methoxy-1H-indol-2-yl)-N-[(1S)-1-cyclopropylethyl]pyrimidine-5-sulfonamide] here?
Answer: Its IC50 is 500 to 2000 nM.

Question: What about the melting point of the same molecule?
Answer: Its melting point is 182 to 183 °C.

Question: Which results are given for `C[C@H](NS(=O)(=O)c1ccc(-c2c(C#N)c3ccc(OC(F)F)cc3n2-c2ncccn2)nc1)C(F)(F)F` [compound 512, 6-[3-cyano-6-(difluoromethoxy)-1-(pyrimidin-2-yl)-1H-indol-2-yl]-N-[(2S)-1,1,1-trifluoropropan-2-yl]pyridine-3-sulfonamide]?
Answer: IC50 [1]: < 500 nM; melting point: 186 to 189 °C

Question: With `CCc1cc(F)c2c(C(N)=O)c(-c3ccc(NS(=O)(=O)C(C)(C)C)cn3)n(C3CCC3)c2c1` [compound 1110, 2-{5-[(tert-butylsulfonyl)amino]pyridin-2-yl}-1-cyclobutyl-6-ethyl-4-fluoro-1H-indole-3-carboxamide] as the molecule, how does the IC50 [1] read?
Answer: Its IC50 is under 500 nM.

Question: And the melting point?
Answer: The melting point was 259 to 263 °C.

Question: With `Cc1ccc2c(C#N)c(-c3ccc(S(=O)(=O)NC(CF)CF)cn3)n(C3CCCC3)c2c1F` [compound 423, 6-(3-cyano-1-cyclopentyl-7-fluoro-6-methyl-1H-indol-2-yl)-N-(1,3-difluoropropan-2-yl)pyridine-3-sulfonamide] as the molecule, how does the IC50 [1] read?
Answer: The IC50 was under 500 nM.

Question: And the melting point?
Answer: Its melting point is 211 to 216 °C.

Question: Which results are given for `C[C@H](NS(=O)(=O)c1cnc(-c2c(C#N)c3cc(C#N)ccc3n2C2CCCC2)nc1)C(F)(F)F` [compound 392, 2-(3,5-dicyano-1-cyclopentyl-1H-indol-2-yl)-N-[(2S)-1,1,1-trifluoropropan-2-yl]pyrimidine-5-sulfonamide]?
Answer: IC50 [1]: < 500 nM; melting point: 250 to 254 °C

Question: With `CC(C)(NS(=O)(=O)c1ccc(-c2c(C#N)c3ccc(OC(F)F)cc3n2-c2ncccn2)nc1)C(F)(F)F` [compound 663, 6-[3-cyano-6-(difluoromethoxy)-1-(pyrimidin-2-yl)-1H-indol-2-yl]-N-(1,1,1-trifluoro-2-methylpropan-2-yl)pyridine-3-sulfonamide] as the molecule, how does the IC50 [1] read?
Answer: Its IC50 is 500 to 2000 nM.

Question: And the melting point?
Answer: The melting point was 179 to 180 °C.

Question: What does the source list for `N#Cc1c(-c2ccc(S(=O)(=O)NC(CF)CF)cn2)n(C2CCC2)c2ccc(OC(F)F)cc12` [compound 32, 6-[3-cyano-1-cyclobutyl-5-(difluoromethoxy)-1H-indol-2-yl]-N-(1,3-difluoropropan-2-yl)pyridine-3-sulfonamide]?
Answer: IC50 [1]: < 500 nM; melting point: 166 to 172 °C

Question: What does the source list for `N#Cc1c(-c2ccc(S(=O)(=O)NC(CF)CF)cn2)n(CC2CC2)c2cc(OC(F)(F)F)ccc12` [compound 68, 6-[3-cyano-1-(cyclopropylmethyl)-6-(trifluoromethoxy)-1H-indol-2-yl]-N-(1,3-difluoropropan-2-yl)pyridine-3-sulfonamide]?
Answer: IC50 [1]: < 500 nM; melting point: 132 to 133 °C

Question: For `CC(C)Oc1ccc2c(C#N)c(-c3ccc(NS(=O)(=O)C4CC4)cn3)n(CC3CC3)c2c1` [compound 280, N-{6-[3-cyano-1-(cyclopropylmethyl)-6-(propan-2-yloxy)-1H-indol-2-yl]pyridin-3-yl}cyclopropanesulfonamide], which IC50 [1] is on record?
Answer: The IC50 was 500 to 2000 nM.

Question: What about the melting point of the same molecule?
Answer: Its melting point is 150 to 155 °C.

Question: For `NC(=O)c1c(-c2ccc(S(N)(=O)=O)cn2)n(C2CCC2)c2cc(OC(F)F)ccc12` [compound 568, 1-cyclobutyl-6-(difluoromethoxy)-2-(5-sulfamoylpyridin-2-yl)-1H-indole-3-carboxamide], which IC50 [1] is on record?
Answer: The IC50 was 2000 to 5000 nM.

Question: And the melting point?
Answer: Its melting point is 230 to 231 °C.

Question: Which results are given for `CCc1cc2c(cc1F)c(C#N)c(-c1ccc(S(=O)(=O)N[C@@H](C)C(F)(F)F)cn1)n2-c1cccnc1` [compound 954, 6-[3-cyano-6-ethyl-5-fluoro-1-(pyridin-3-yl)-1H-indol-2-yl]-N-[(2S)-1,1,1-trifluoropropan-2-yl]pyridine-3-sulfonamide]?
Answer: IC50 [1]: < 500 nM; melting point: 205 to 212 °C

Question: What does the source list for `CCc1ccc2c(C#N)c(-c3ccc(S(=O)(=O)N[C@@H](C)C4CC4)cn3)n(C3CCCC3)c2c1` [compound 312, 6-(3-cyano-1-cyclopentyl-6-ethyl-1H-indol-2-yl)-N-[(1S)-1-cyclopropylethyl]pyridine-3-sulfonamide]?
Answer: IC50 [1]: 500 to 2000 nM; melting point: 147.5 to 148.5 °C

Question: With `N#Cc1c(-c2ncc(S(=O)(=O)NC(CF)CF)cn2)n(C2CCCCC2)c2cc(OC(F)F)ccc12` [compound 179, 2-[3-cyano-1-cyclohexyl-6-(difluoromethoxy)-1H-indol-2-yl]-N-(1,3-difluoropropan-2-yl)pyrimidine-5-sulfonamide] as the molecule, how does the IC50 [1] read?
Answer: Its IC50 is under 500 nM.

Question: What about the melting point of the same molecule?
Answer: The melting point was 174 to 176 °C.

Question: For `Cc1cc2c(cc1F)c(C(N)=O)c(-c1ccc(S(=O)(=O)N[C@H](C)C(F)(F)F)cn1)n2C1CCC1` [compound 732, 1-cyclobutyl-5-fluoro-6-methyl-2-(5-{[(2R)-1,1,1-trifluoropropan-2-yl]sulfamoyl}pyridin-2-yl)-1H-indole-3-carboxamide], which IC50 [1] is on record?
Answer: Its IC50 is under 500 nM.

Question: And the melting point?
Answer: The melting point was 195 to 197 °C.

Question: With `Cc1ccc2c(c1)c(C#N)c(-c1ccc(S(=O)(=O)N[C@H](C)C(F)(F)F)cn1)n2CC1CC1` [compound 458, 6-[3-cyano-1-(cyclopropylmethyl)-5-methyl-1H-indol-2-yl]-N-[(2R)-1,1,1-trifluoropropan-2-yl]pyridine-3-sulfonamide] as the molecule, how does the IC50 [1] read?
Answer: The IC50 was under 500 nM.

Question: And the melting point?
Answer: Its melting point is 166 to 172 °C.

Question: With `Cc1ccc2c(C#N)c(-c3ccc(S(=O)(=O)NC(C)(C)C(F)(F)F)cn3)n(C3CCC3)c2c1` [compound 478, 6-(3-cyano-1-cyclobutyl-6-methyl-1H-indol-2-yl)-N-(1,1,1-trifluoro-2-methylpropan-2-yl)pyridine-3-sulfonamide] as the molecule, how does the IC50 [1] read?
Answer: Its IC50 is under 500 nM.

Question: What about the melting point of the same molecule?
Answer: The melting point was 222 to 227 °C.

Question: With `CCc1cc2c(cc1F)c(C(=O)O)c(-c1ccc(NS(=O)(=O)C(C)(C)C)nc1)n2[C@H](C)C1CC1` [compound 1103, 2-{6-[(tert-butylsulfonyl)amino]pyridin-3-yl}-1-[(1R)-1-cyclopropylethyl]-6-ethyl-5-fluoro-1H-indole-3-carboxylic acid] as the molecule, how does the IC50 [1] read?
Answer: The IC50 was 500 to 2000 nM.

Question: And the melting point?
Answer: The melting point was 165 °C (dec.).

Question: Which results are given for `CCc1cc2c(cc1F)c(C#N)c(-c1ccc(S(=O)(=O)N[C@@H](C)C(F)(F)F)cn1)n2-c1cncc(Cl)c1` [compound 983, 6-[1-(5-chloropyridin-3-yl)-3-cyano-6-ethyl-5-fluoro-1H-indol-2-yl]-N-[(2S)-1,1,1-trifluoropropan-2-yl]pyridine-3-sulfonamide]?
Answer: IC50 [1]: < 500 nM; melting point: 107 to 109 °C

Question: Which results are given for `Cc1ccc2c(c1)c(C#N)c(-c1ncc(S(=O)(=O)N[C@@H](C)C3CC3)cn1)n2C1CCC1` [compound 545, 2-(3-cyano-1-cyclobutyl-5-methyl-1H-indol-2-yl)-N-[(1S)-1-cyclopropylethyl]pyrimidine-5-sulfonamide]?
Answer: IC50 [1]: < 500 nM; melting point: 168 to 171 °C

Question: Which results are given for `CC(C)NS(=O)(=O)c1cnc(-c2c(C#N)c3ccc(C4CC4)cc3n2CC2CC2)nc1` [compound 124, 2-[3-cyano-6-cyclopropyl-1-(cyclopropylmethyl)-1H-indol-2-yl]-N-(propan-2-yl)pyrimidine-5-sulfonamide]?
Answer: IC50 [1]: < 500 nM; melting point: 169 to 174 °C

Question: Which results are given for `N#Cc1ccc2c(C#N)c(-c3ccc(S(=O)(=O)NC(CF)CF)cn3)n(C3CCC3)c2c1` [compound 465, 6-(3,6-dicyano-1-cyclobutyl-1H-indol-2-yl)-N-(1,3-difluoropropan-2-yl)pyridine-3-sulfonamide]?
Answer: IC50 [1]: < 500 nM; melting point: 203 to 204 °C

Question: For `N#Cc1c(-c2ccc(S(N)(=O)=O)cn2)n(CC2CC2)c2cc(OC(F)F)c(F)cc12` [compound 812, 6-[3-cyano-1-(cyclopropylmethyl)-6-(difluoromethoxy)-5-fluoro-1H-indol-2-yl]pyridine-3-sulfonamide], which IC50 [1] is on record?
Answer: Its IC50 is 2000 to 5000 nM.

Question: And the melting point?
Answer: Its melting point is 173 to 178 °C.

Question: Which results are given for `Cc1cc2c(cc1Br)c(C#N)c(-c1ccc(S(=O)(=O)N[C@@H](C)C(F)(F)F)cn1)n2C1CCCC1` [compound 675, 6-(5-bromo-3-cyano-1-cyclopentyl-6-methyl-1H-indol-2-yl)-N-[(2S)-1,1,1-trifluoropropan-2-yl]pyridine-3-sulfonamide]?
Answer: IC50 [1]: < 500 nM; melting point: 204 to 204.5 °C

Source: patent publication US8735414B2 (priority 2009, dated 2014)
